The test addresses T1, Bombesin receptor subtype‐3 (BRS‐3) (Rattus norvegicus, UniProt Q8K418).
T1 construct: gene Brs3
T1 sequence (Q8K418 1-399): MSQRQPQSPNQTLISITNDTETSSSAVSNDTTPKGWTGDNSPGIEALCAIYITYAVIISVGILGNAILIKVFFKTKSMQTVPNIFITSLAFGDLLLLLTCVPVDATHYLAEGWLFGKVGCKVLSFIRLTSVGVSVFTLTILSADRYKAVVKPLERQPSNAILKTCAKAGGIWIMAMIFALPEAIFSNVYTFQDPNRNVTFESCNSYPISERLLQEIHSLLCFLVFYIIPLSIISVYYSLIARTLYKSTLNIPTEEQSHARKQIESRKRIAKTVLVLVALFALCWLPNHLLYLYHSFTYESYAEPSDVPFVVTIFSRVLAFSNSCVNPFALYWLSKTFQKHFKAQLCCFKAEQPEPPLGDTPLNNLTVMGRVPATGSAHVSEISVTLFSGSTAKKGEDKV
Nature of the test: agonist-induced Ca2+ mobilization, aequorin bioluminescence assay in CHO-K1 cells overexpressing BRS-3. In kind it is cell-based. For orientation: Calcium flux is commonly read through the fluorescence of an indicator in the cells.

In general, EC50 refers to the concentration at which the effect is half-maximal. A higher EC50 goes with weaker potency. In the case of `COc1ccc2c(c1)C(=O)N(Cc1ccccc1)C(C(=O)NC(C)(C)C)c1ccccc1-2` (racemic) [compound-A, 6‐benzyl‐N‐tert‐butyl‐9‐methoxy‐7‐oxo‐6,7‐dihydro‐5H‐dibenzo[c,e]azepine‐5‐carboxamide], the EC50 worked out at 0.1 µM.
Consider `COc1ccc2c(c1)C(=O)N(Cc1ccccc1)C(C(=O)NC(C)(C)C)c1ccccc1-2` (racemic) [compound-C, compound‐C], for which the EC50 stood at 0.13 µM.

Source of the values: publication PMC5853643, “Bombesin receptor subtype‐3‐expressing neurons regulate energy homeostasis through a novel neuronal pathway in the hypothalamus” (Brain and Behavior, 2017).
